Holding throughout (assay type): cell-based
For assay [1], the system named is CD4 Tscm. Put plainly: In vitro culture assay of sorted CD4 Tscm, phenotype by flow cytometry. Conditions: 10 d incubation with rhIL-15; compared to control experiments. The protocol: (§1) PBMC were stained with monoclonal antibodies directed against CD4, CD3, CD45RA, CCR7, CD62L, CD122, CD95, according to standard protocols. After 20 minutes, CCR7+ CD45RA+ naïve CD4 T cells, CCR7+ CD45RA− central-memory CD4 T cells (CD4 Tcm), CCR7− CD45RA− CD4 T cells, CCR7− CD45RA+ terminally-differentiated CD4 T cells (CD4 Ttd) and CCR7+ CD45RA+ CD62L+ CD95+ CD122+ T memory stem cell CD4 T cells (CD4 Tscm) were live sorted in a specifically designated biosafety cabinet (Baker Hood), using a FACS Aria cell sorter (BD Biosciences) at 70 pounds per square inch. For phenotypic characterization, cells were additionally stained with CCR5 or CXCR4 antibodies, or Annexin V, and acquired on a LSRII flow cytometer (BD Biosciences). Data were analyzed using FlowJo software (Treestar).
(§2) Selected CD4 T cell subsets were isolated by cell sorting, labeled cells with 2 μM CFSE for 7 min at 37° C., and incubated with rhIL-15 (25 ng/ml; Peprotech) for 10 d in the presence or absence of Compound C, (6S,9S,9aS)-N-benzyl-6-(4-hydroxybenzyl)-2,9-dimethyl-4,7-dioxo-8-(quinolin-8-ylmethyl)octahydro-1H-pyrazino[2,1-c][1,2,4]triazine-1-carboxamide (Prism Biolabs). Afterwards, cells were harvested and phenotypically characterized by flow cytometry. […]

Assay [2] relates to HIV. Put plainly: HIV replication in macrophages, HIV p24 antigen released into culture supernatants. To be noted: macrophages pretreated 24 hours; infection monitored 10 days; concentrations 100 pM to 2 μM. The protocol:
For these experiments, peripheral blood mononuclear cells (PBMCs) were isolated from HIV seronegative donors and differentiated into macrophages for 7-10 days using methods previously described (J Biol Chem 286: 18890-18902 (2011); PLoS Pathogens 8(5):e1002689 pp 1-13 (2012); PLoS Pathogens 8(11):e1003017 (2012)). The macrophages were pretreated for 24 hours with Compound C, which is the β-catenin inhibitor (6S,9S,9aS)-N-benzyl-6-(4-hydroxybenzyl)-2,9-dimethyl-4,7-dioxo-8-(quinolin-8-ylmethyl)octahydro-1H-pyrazino[2,1-c][1,2,4]triazine-1-carboxamide. Macrophages were treated with Compound C at increasing concentrations and productive infection was monitored for 10 days by detection of HIV p24 antigen released into the culture supernatants.

Assay [3] concerns CD4 Tcm. The experiment in a line: In vitro culture assay of sorted CD4 Tcm, phenotype by flow cytometry. Conditions: 10 d incubation with rhIL-15; compared to control experiments. The protocol:
as §1, §2

Assay [4] relates to LC3B. The experiment in a line: Autophagy induction in macrophages, LC3B immunoblotting. From the text:
Microtubule-associated protein 1A/1B-light chain 3 (LC3) is a soluble protein that is distributed ubiquitously in mammalian tissues and cultured cells (reviewed in Methods Mol. Biol. 445, 77-88 (2008). During autophagy, autophagosomes engulf cytoplasmic components, including cytosolic proteins and organelles. Concomitantly, a cytosolic form of LC3 (LC3-I) is conjugated to phosphatidylethanolamine to form LC3-phosphatidylethanolamine conjugate (LC3-II), which is recruited to autophagosomal membranes. Autophagosomes fuse with lysosomes to form autolysosomes, and intra-autophagosomal components are degraded by lysosomal hydrolases. At the same time, LC3-II in autolysosomal lumen is degraded. Thus, lysosomal turnover of the autophagosomal marker LC3-II reflects starvation-induced autophagic activity, and detecting LC3 by immunoblotting or immunofluorescence is an indicator of autophagy and autophagy-related processes, including autophagic cell death.
(§3) For these studies, macrophages were exposed to rapamycin 100 nM (a known inducer of autophagic flux), proteins were extracted and subjected to immunoblotting.
During autophagy, LC3B (LC3B-I) forms LC3B-phosphatidylethanolamine conjugate (LC3B-II), which is recruited to autophagosomal membranes. When there is autophagic flux there is lipidation of LC3B-I that results in conversion of LC3B-II. Thus, during autophagic flux the relative quantity of LC3B-II is increased compared to LC3B-I.

In assay [5] the test system is Sequestome 1/p62 (SQSTM1). The experiment in a line: Autophagic flux in macrophages, SQSTM1/p62 immunoblotting. Conditions: Compound A 1 and 2 μM, rapamycin 100 nM, immunoblot. Here is the method:
as §3
In addition, the inventors looked at another marker of autophagic flux (sequestosome 1, also called SQSTIM1 or p62). During active autophagy, SQSTIM1 is degraded (decreased).

`C[C@H]1[C@H]2N(C(=O)CN(C)N2C(=O)NCc2ccccc2)[C@@H](Cc2ccc(O)cc2)C(=O)N1Cc1cccc2cccnc12` [Compound C, (6S,9S,9aS)-N-benzyl-6-(4-hydroxybenzyl)-2,9-dimethyl-4,7-dioxo-8-(quinolin-8-ylmethyl)octahydro-1H-pyrazino[2,1-c][1,2,4]triazine-1-carboxamide]: the “differentiation of Tscm into more mature CCR7− CD62L− CD4 T cell populations” value in assay [1] is “substantially facilitated differentiation”. Besides, the “HIV replication (HIV p24 antigen)” value in assay [2] is on record as “inhibits HIV in a dose dependent manner”. Also, the “differentiation of Tcm into more mature CCR7− CD62L− CD4 T cell populations” value in assay [3] was “to a lesser extent”.
In the case of `C[C@H]1[C@H]2N(C(=O)CN(C)N2C(=O)NCc2ccccc2)[C@@H](Cc2ccc(OP(=O)(O)O)cc2)C(=O)N1Cc1cccc2cccnc12` [Compound A, 4-(((6S,9S,9aS)-1-(benzylcarbamoyl)-2,9-dimethyl-4,7-dioxo-8-(quinolin-8-ylmethyl)octahydro-1H-pyrazino[2,1-c][1,2,4]triazin-6-yl)methyl)phenyl dihydrogen phosphate], in assay [4] (1 and 2 μM), the induction of autophagy entry is listed as “induces autophagy”. In addition, the “levels of LC3B II and LC3B I relative to negative control” value in assay [4] (Compound A 2 μM, rapamycin 100 nM, immunoblot) was “greatly reduced”. Also, in assay [4] (Compound A 1 and 2 μM, rapamycin 100 nM, immunoblot), the “amount of LC3B II and LC3B I relative to negative control” value is “increased amount of LC3B II and decreased amount of LC3B I”. Also, the “SQSTM1 (p62) levels relative to negative control” value in assay [5] is recorded as “reduced”.

The record behind these values is patent US20160244453A1, “TREATMENT OF VIRAL AND INFECTIOUS DISEASES USING AN INHIBITOR OF CBP/CATENIN” (PRISM PHARMA CO., LTD., priority 2013, published 2016).
